Results taken from the supplement of paper PMC10307832.

Tests used:
Assay in all cases: relative viability (nuclei count vs DMSO), 5 days (fraction); higher = more cells survive
[1] = compound: C1COCCN1C2=CC(=O)C3=C(O2)C(=CC=C3)C4=CC=CC5=C4SC6=CC=CC=C56
Outline: (§1)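 Viability was defined as treated-well nuclei divided by vehicle-well nuclei, with the median taken over replicate plates. Cells from lung cancer lines sat overnight at 37 °C in 1536-well plates, received five √10-spaced library-drug doses by pinning on vehicle-anchored plates, and grew 5 days without medium change before one-step fixation, permeabilisation and Hoechst staining, 4× imaging and MetaXpress nuclear counts. Only plates with control CV under 25% and at least one doubling were kept.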

[2] = compound: CCN(CC)CCCCNc1ncc2cc(-c3cc(OC)cc(OC)c3)c(NC(=O)NC(C)(C)C)nc2n1
Outline: as §1

[3] = compound: COCC1(CO)C(=O)C2CCN1CC2 [PRIMA-1MET]
Outline: as §1

[4] = compound: COc1nc(C)cnc1NS(=O)(=O)c1cccnc1-c1ccc(-c2nnco2)cc1 [Zibotentan]
Outline: as §1

[5] = compound: O=c1cc(-c2cccc3c2Sc2ccccc2S3)oc(N2CCOCC2)c1
Outline: as §1

Cell Line | relative viability ([1]; 0.01 µM) | relative viability ([1]; 0.03162 µM) | relative viability ([1]; 0.1 µM) | relative viability ([1]; 0.3162 µM) | relative viability ([1]; 1 µM) | relative viability ([2]; 0.01 µM) | relative viability ([2]; 0.03162 µM) | relative viability ([2]; 0.1 µM) | relative viability ([2]; 0.3162 µM) | relative viability ([2]; 1 µM) | relative viability ([3]; 0.2 µM) | relative viability ([3]; 0.6325 µM) | relative viability ([3]; 2 µM) | relative viability ([3]; 6.325 µM) | relative viability ([3]; 20 µM) | relative viability ([4]; 0.08 µM) | relative viability ([4]; 0.253 µM) | relative viability ([4]; 0.8 µM) | relative viability ([4]; 2.53 µM) | relative viability ([5]; 0.08 µM) | relative viability ([5]; 0.253 µM) | relative viability ([5]; 0.8 µM) | relative viability ([5]; 2.53 µM) | relative viability ([5]; 8 µM)
SW 900 | 0.793 | 0.811 | 0.721 | 0.942 | 0.853 | 0.907 | 1.11 | 0.804 | 1.02 | 0.717 | 0.984 | 0.757 | 0.637 | 0.804 | 0.0765 | 0.918 | 0.75 | 0.851 | 0.921 | 0.622 | 0.892 | 0.942 | 0.809 | 0.774
SW 1573 | 0.981 | 0.998 | 0.985 | 0.952 | 0.938 | 0.932 | 1.01 | 1.09 | 1.02 | 0.906 | 1.11 | 0.787 | 0.87 | 0.246 | 0.0301 | 1.03 | 0.707 | 1.08 | 1.09 | 0.965 | 1.1 | 1 | 0.949 | 1.1
UMC-11 | 0.986 | 0.952 | 0.982 | 1.02 | 0.989 | 1.03 | 0.915 | 1.01 | 1.01 | 0.98 | 1.05 | 0.887 | 0.848 | 0.97 | 0.944 | 1.01 | 1.01 | 0.951 | 0.978 | 0.998 | 1.18 | 1.09 | 0.916 | 1.25
